Assay results taken from patent US12454516B2, “Nitric oxide releasing prodrugs of MDA and MDMA” (priority 2021, dated 2025).

Columns and labels:
[1] = Stability in SGF without pepsin; assay type: in vitro ADME
[2] = Stability in SGF with pepsin; assay type: in vitro ADME
[3] = Stability of Prodrug 2-1 in plasma (human); assay type: in vitro ADME
[4] = Stability of Prodrug 2-1 in plasma (rat); assay type: in vitro ADME
Solubility in FaSSIF = assay type: physicochemical; details: read-out: Solublity (uM) FaSSIF
physchem = details: buffer, pH 6.5
[5] = Stability of Prodrug 2-1 in plasma (mouse); assay type: in vitro ADME

| Structure (SMILES) | Remaining Percentage (%) 0 min [1] [%] | Remaining Percentage (%) 30 min [1] [%] | Remaining Percentage (%) 60 min [1] [%] | Remaining Percentage (%) 120 min [1] [%] | Remaining Percentage (%) 240 min [1] [%] | Remaining Percentage (%) 0 min [2] [%] | Remaining Percentage (%) 30 min [2] [%] | Remaining Percentage (%) 60 min [2] [%] | Remaining Percentage (%) 120 min [2] [%] | Remaining Percentage (%) 240 min [2] [%] | Remaining Percentage (%) 0 min (Stability in PBS pH 6.5) [%] | Remaining Percentage (%) 30 min (Stability in PBS pH 6.5) [%] | Remaining Percentage (%) 60 min (Stability in PBS pH 6.5) [%] | Remaining Percentage (%) 120 min (Stability in PBS pH 6.5) [%] | Remaining Percentage (%) 240 min (Stability in PBS pH 6.5) [%] | half-life [3] [h] | Remaining Percentage (%) 0 min [3] [%] | Remaining Percentage (%) 15 min [3] [%] | Remaining Percentage (%) 30 min [3] [%] | Remaining Percentage (%) 60 min [3] [%] | also measured |
| --- | --- | --- | --- | --- | --- | --- | --- | --- | --- | --- | --- | --- | --- | --- | --- | --- | --- | --- | --- | --- | --- |
| CC[C@H]1OC(=O)[C@H](C)[C@@H](O[C@H]2C[C@@](C)(OC)[C@@H](O)[C@H](C)O2)[C@H](C)[C@@H](O[C@@H]2O[C@H](C)C[C@H](N(C)C)[C@H]2O)[C@](C)(O)C[C@@H](C)C(=O)[C@H](C)[C@@H](O)[C@]1(C)O [Erythromycin, reference compound] | 100 | 60.53 | 34.86 | 11.45 | 1.64 | 100 | 59.9 | 39.02 | 12.40 | 1.57 |  |  |  |  |  |  |  |  |  |  |  |
| O=C(O)CCCc1ccc(N(CCCl)CCCl)cc1 [Chlorambucil, reference compound] |  |  |  |  |  |  |  |  |  |  | 100 | 62.6 | 39.9 | 15.07 | 2.05 |  |  |  |  |  |  |
| C[C@H](Cc1ccc2c(c1)OCO2)NC(=O)CCCO[N+](=O)[O-] [Compound 2-1, (R)-4-((1-(benzo[d][1,3]dioxol-5-yl)propan-2-yl)amino)-4-oxobutyl nitrate] | 100 | 95.42 | 99.51 | 93.54 | 81.87 | 100 | 98.88 | 98.96 | 89.53 | 82.75 | 100 | 104.05 | 105.81 | 98.20 | 83.83 | 15.1 | 100.00 | 100.94 | 102.03 | 90.66 | Remaining Percentage (%) 120 min [3]: 93.79%; half-life [1]: 14.3 h; half-life [4]: 3.84 h; Remaining Percentage (%) 0 min [4]: 100.00%; Remaining Percentage (%) 15 min [4]: 96.93%; Remaining Percentage (%) 30 min [4]: 93.53%; Remaining Percentage (%) 60 min [4]: 81.00%; Remaining Percentage (%) 120 min [4]: 70.84%; half-life [2]: 13.5 h; solubility (Solubility in FaSSIF): 284 µM; half-life (physchem): 13.4 h; half-life [5]: 26.2 h; Remaining Percentage (%) 0 min [5]: 100.00%; Remaining Percentage (%) 15 min [5]: 95.13%; Remaining Percentage (%) 30 min [5]: 98.19%; Remaining Percentage (%) 60 min [5]: 95.02%; Remaining Percentage (%) 120 min [5]: 93.59% |
| CC(C)[N+](C)(CCOC(=O)C1c2ccccc2Oc2ccccc21)C(C)C [Propantheline, reference compound] |  |  |  |  |  |  |  |  |  |  |  |  |  |  |  | 0.246 | 100.00 | 72.22 | 39.13 | 6.46 | Remaining Percentage (%) 120 min [3]: 0.12%; half-life [5]: 0.449 h; Remaining Percentage (%) 0 min [5]: 100.00%; Remaining Percentage (%) 15 min [5]: 72.20%; Remaining Percentage (%) 30 min [5]: 49.21%; Remaining Percentage (%) 60 min [5]: 22.77%; Remaining Percentage (%) 120 min [5]: 4.69% |
| CC[C@H](C)C(=O)O[C@H]1C[C@@H](C)C=C2C=C[C@H](C)[C@H](CC[C@@H]3C[C@@H](O)CC(=O)O3)[C@H]21 [Lovastatin, reference compound] |  |  |  |  |  |  |  |  |  |  |  |  |  |  |  |  |  |  |  |  | half-life [4]: 0.0747 h; Remaining Percentage (%) 0 min [4]: 100.00%; Remaining Percentage (%) 15 min [4]: 9.82%; Remaining Percentage (%) 30 min [4]: 0.00%; Remaining Percentage (%) 60 min [4]: 0.00%; Remaining Percentage (%) 120 min [4]: 0.00% |
